This note sets out measurements from patent publication US7956077B2, “2-{-3,′2-(phenyl)-oxazol-4-ylmethoxyl-cyclohexyl methoxy}-propionic acid derivatives used as peroxisome proliferator-activated receptor (PPAR) ligands for the treatment of hyperlipidemia and diabetes” (Sanofi-Aventis Deutschland GmbH, priority 2004, dated 2011).

Values joined by “and” are separate entries in the source; they are usually repeats but may differ in a detail not shown here. Equal entries are not always repeated. Where only a bound is given, the exact number is not on record here.

One experiment concerns the target T1, human PPARgamma (Homo sapiens, UniProt P37231).
T1 construct: human PPARgamma receptor (amino acids 1152-Y475); expressed in transfected cells; host or cells: HEK cells, transiently transfected with pcDNA3-GAL4-humanPPARgammaLBD
T1 sequence (P37231 182-477 isoform P37231-2 limits assumed): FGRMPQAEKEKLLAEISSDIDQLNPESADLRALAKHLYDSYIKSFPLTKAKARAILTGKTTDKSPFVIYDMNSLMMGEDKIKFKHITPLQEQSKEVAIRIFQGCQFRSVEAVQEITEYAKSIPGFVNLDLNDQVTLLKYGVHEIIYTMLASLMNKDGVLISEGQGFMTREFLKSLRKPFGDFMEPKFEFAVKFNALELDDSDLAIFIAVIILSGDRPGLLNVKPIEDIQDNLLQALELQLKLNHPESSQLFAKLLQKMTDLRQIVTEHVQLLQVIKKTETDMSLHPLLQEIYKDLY
Nature of the experiment: Cellular PPARgamma assay (transiently transfected HEK cells, luciferase reporter). Format: cell-based. As to conditions: HEK cells transiently transfected with GAL4-humanPPARgammaLBD, 48 h incubation. From the text: Determination of EC50 Values of PPAR Agonists in the Cellular PPARgamma Assay
A transient transfection system is employed to determine the cellular PPARgamma activity of PPAR agonists. It is based on the use of a luciferase reporter plasmid (pGL3basic-5×GAL4-TK) and of a PPARgamma expression plasmid (pcDNA3-GAL4-humanPPARgammaLBD). Both plasmids are transiently transfected into human mbryonic kidney cells (HEK cells). There is then expression in these cells of the usion protein GAL4-humanPPARgammaLBD which binds to the GAL4 binding sites of he reporter plasmid. In the presence of a PPARgamma-active ligand, the activated usion protein GAL4-humanPPARgammaLBD induces expression of the luciferase reporter gene, which can be detected in the form of a chemiluminescence signal after addition of a luciferase substrate. As a difference from the stably transfected PPARalpha reporter cell line, in the cellular PPARgamma assay the two components (luciferase reporter plasmid and PPARgamma expression plasmid) are transiently transfected into HEK cells because stable and permanent expression of the PPARgamma fusion protein is cytotoxic.
Construction of the Plasmids
The luciferase reporter plasmid pGL3basic-5×GAL4-TK is based on the vector pGL3basic from Promega. The reporter plasmid is prepared by cloning five binding sites of the yeast transcription factor GAL4 (each binding site with the sequence 5′-CTCGGAGGACAGTACTCCG-3′), together with a 160 bp-long thymidine kinase promoter section (Genbank Accession # AF027128) 5′-upstream into pGL3basic. 3′-downstream of the thymidine kinase promoter is the complete luciferase gene from Photinus pyralis (Genbank Accession # M15077), which is already a constituent of the plasmid pGL3basic used. The cloning and sequencing of the reporter plasmid pGL3basic-5×GAL4-TK took place in analogy to the description in Sambrook J. et. al. (Molecular cloning, Cold Spring Harbor Laboratory Press, 1989).
The PPARgamma expression plasmid pcDNA3-GAL4-humanPPARgammaLBD was prepared by first cloning the cDNA coding for amino acids 1-147 of the yeast transcription factor GAL4 (Genbank Accession # P04386) into the plasmid pcDNA3 (from Invitrogen) 3′-downstream of the cytomegalovirus promoter. Subsequently, the cDNA of the ligand-binding domain (LBD) of the human PPARgamma receptor (amino acids 1152-Y475; Accession # g1480099) 3′-downstream of the GAL4 DNA binding domain was cloned. Cloning and sequencing of the PPARgamma expression plasmid pcDNA3-GAL4-humanPPARgammaLBD again took place in analogy to the description in Sambrook J. et. al. (Molecular cloning, Cold Spring Harbor Laboratory Press, 1989). Besides the luciferase reporter plasmid pGL3basic-5×GAL4-TK and the PPARgamma expression plasmid pcDNA3-GAL4-humanPPARgammaLBD, also used for the cellular PPARgamma assay are the reference plasmid pRL-CMV (from Promega) and the plasmid pBluescript SK(+) from Stratagene. All four plasmids were prepared using a plasmid preparation kit from Qiagen, which ensured a plasmid quality with a minimal endotoxin content, before transfection into HEK cells.
The activity of PPARgamma agonists is determined in a 4-day assay which is described below. Before the transfection, HEK cells are cultivated in DMEM medium (#41965-039, Invitrogen) which is mixed with the following additions: 10% FCS (#16000-044, Invitrogen), 1% penicillin-streptomycin solution (#15140-122, Invitrogen) and 2 mM L-glutamine (#25030-024, Invitrogen).
Firstly, solution A, a transfection mixture which contains all four plasmids previously described in addition to DMEM medium, is prepared. […]

Another experiment has as its target T2, human PPARalpha (Homo sapiens, UniProt Q07869).
T2 construct: human PPARalpha receptor (amino acids S167-Y468); expressed in transfected cells; host or cells: HEK cells, stably transfected (pcDNA3 construct)
T2 sequence (Q07869 167-468): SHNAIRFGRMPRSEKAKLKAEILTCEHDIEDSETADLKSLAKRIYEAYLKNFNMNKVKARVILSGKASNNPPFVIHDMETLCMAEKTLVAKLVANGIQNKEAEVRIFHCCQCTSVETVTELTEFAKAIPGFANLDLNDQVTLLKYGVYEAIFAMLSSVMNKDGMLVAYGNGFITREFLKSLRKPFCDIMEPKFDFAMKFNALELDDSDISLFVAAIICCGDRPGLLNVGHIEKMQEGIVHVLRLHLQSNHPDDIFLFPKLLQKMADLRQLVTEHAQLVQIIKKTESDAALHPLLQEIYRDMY
Briefly: Cellular PPARalpha assay (stably transfected HEK luciferase reporter cell line). Particulars: PPARalpha reporter cell line (HEK, GR-GAL4-humanPPARalpha-LBD), 24 h incubation. The class given is cell-based. The procedure:
Determination of EC50 Values of PPAR Agonists in the Cellular PPARalpha Assay
The potency of substances which bind to human PPARalpha and activate it in an agonistic manner is analyzed using a stably transfected HEK cell line (HEK=human embryo kidney) which is referred to here as PPARalpha reporter cell line. It contains two genetic elements, a luciferase reporter element (pdeltaM-GAL4-Luc-Zeo) and a PPARalpha fusion protein (GR-GAL4-humanPPARalpha-LBD) which mediates expression of the luciferase reporter element depending on a PPARalpha ligand. The stably and constitutively expressed fusion protein GR-GAL4-humanPPARalpha-LBD binds in the cell nucleus of the PPARalpha reporter cell line via the GAL4 protein portion to the GAL4 DNA binding motifs 5′-upstream of the luciferase reporter element which is stably integrated in the genome of the cell line. There is only little expression of the luciferase reporter gene without addition of a PPARalpha ligand if fatty acid-depleted fetal calf serum (cs-FCS) is used in the assay. PPARalpha ligands bind and activate the PPARalpha fusion protein and thereby bring about expression of the luciferase reporter gene. The luciferase which is formed can be detected by means of chemiluminescence via an appropriate substrate.
Construction of the Cell Line
The PPARalpha reporter cell line was prepared in two steps. Firstly, the luciferase reporter element was constructed and stably transfected into HEK cells. For this purpose, five binding sites of the yeast transcription factor GAL4 (in each case 5′-CGGAGTACTGTCCTCCGAG-3′) were cloned in 5′-upstream of a 68 bp-long minimal MMTV promoter (Genbank Accession # V01175). The minimal MMTV promoter section contains a CCAAT box and a TATA element in order to enable efficient transcription by RNA polymerase II. The cloning and sequencing of the GAL4-MMTV construct took place in analogy to the description of Sambrook J. et. al. (Molecular cloning, Cold Spring Harbor Laboratory Press, 1989). Then the complete Photinus pyralis luciferase gene (Genbank Accession # M15077) was cloned in 3′-downstream of the GAL4-MMTV element. After sequencing, the luciferase reporter element consisting of five GAL4 binding sites, MMTV promoter and luciferase gene was subcloned into a plasmid which confers zeozin resistance in order to obtain the plasmid pdeltaM-GAL4-Luc-Zeo. This vector was transfected into HEK cells in accordance with the statements in Ausubel, F. M. et al. (Current protocols in molecular biology, Vol. 1-3, John Wiley & Sons, Inc., 1995).
In a second step, the PPARalpha fusion protein (GR-GAL4-humanPPARalpha-LBD) was introduced into the stable cell clone described. For this purpose, initially the cDNA coding for the N-terminal 76 amino acids of the glucocorticoid receptor (Genbank Accession # P04150) was linked to the cDNA section coding for amino acids 1-147 of the yeast transcription factor GAL4 (Genbank Accession # P04386). The cDNA of the ligand-binding domain of the human PPARalpha receptor (amino acids S167-Y468; Genbank Accession # S74349) was cloned in at the 3′ end of this GR-GAL4 construct. The fusion construct prepared in this way (GR-GAL4-humanPPARalpha-LBD) was subcloned into the plasmid pcDNA3 (from Invitrogen) in order to enable constitutive expression therein by the cytomegalovirus promoter. This plasmid was linearized with a restriction endonuclease and stably transfected into the previously described cell clone containing the luciferase reporter element. The finished PPARalpha reporter cell line which contains a luciferase reporter element and constitutively expresses the PPARalpha fusion protein (GR-GAL4-humanPPARalpha-LBD) was isolated by selection with zeozin (0.5 mg/ml) and G418 (0.5 mg/ml).
The activity of PPARalpha agonists is determined in a 3-day assay which is described below: […]
Background: A reporter such as luciferase makes a cellular process visible.

In the case of `CCCC(C)(OC[C@@H]1CCC[C@H](OCc2nc(-c3cccc(OC)c3)oc2CC)C1)C(=O)O` (mixture of isomers) [Example 10, 2-{(1R,3S )-3-[5-Ethyl-2-(3-methoxyphenyl)oxazol-4-ylmethoxy]cyclohexylmethoxy}-2-methylpentanoic acid], the values for the EC50 on human PPARgamma and at human PPARalpha were 130 nM and 54 nM, respectively.

With `CCCC(C)(OC[C@@H]1CCC[C@H](OCc2nc(-c3ccc(C)cc3)oc2CC)C1)C(=O)O` (mixture of isomers) [Example 11, 2-[(1R,3S)-3-(5-Ethyl-2-p-tolyloxazol-4-ylmethoxy)cyclohexylmethoxy]-2-methyl-pentanoic acid], the EC50 at human PPARgamma came out at 870 nM; on human PPARalpha it was 4.1 nM.

As to `CCCC(C)(OC[C@@H]1CCC[C@H](OCc2nc(-c3ccc(CC(C)C)cc3)oc2CC)C1)C(=O)O` (mixture of isomers) [Example 12, 2-{(1R,3S)-3-[5-Ethyl-2-(4-isobutylphenyl)oxazol-4-ylmethoxy]cyclohexylmethoxy}-2-methylpentanoic acid], the EC50 on human PPARgamma worked out at 75 nM; at human PPARalpha, 12 nM.

Regarding `CCCC(C)(OC[C@@H]1CCC[C@H](OCc2nc(-c3ccc4ccccc4c3)oc2CC)C1)C(=O)O` (mixture of isomers) [Example 13, 2-{(1R,3S)-3-[5-Ethyl-2-(naphth-2-yl)oxazol-4-ylmethoxy]cyclohexylmethoxy}-2-methylpentanoic acid], the EC50 is 130 nM on human PPARgamma and 6.6 nM at human PPARalpha.

With `CCCC(C)(OC[C@@H]1CCC[C@H](OCc2nc(-c3ccc(C(C)C)cc3)oc2CC)C1)C(=O)O` (mixture of isomers) [Example 14, 2-{(1R,3S)-3-[5-Ethyl-2-(4-isopropylphenyl)oxazol-4-ylmethoxy}cyclohexylmethoxy]-2-methylpentanoic acid], the EC50 at human PPARalpha was 0.38 nM and 0.53 nM.

As for `CCCC(C)(OC[C@@H]1CCC[C@H](OCc2nc(-c3ccc4ccccc4c3)oc2C)C1)C(=O)O` (mixture of isomers) [Example 15, 2-Methyl-2-{(1R,3S)-3-[5-methyl-2-(naphth-2-yl)oxazol-4-ylmethoxy]-cyclohexylmethoxy}pentanoic acid], the EC50 on human PPARgamma was 160 nM; on human PPARalpha, 0.39 nM.

For `CCc1oc(-c2cccc(OC)c2)nc1CO[C@H]1CCC[C@@H](COC(C)(Cc2ccccc2)C(=O)O)C1` (mixture of isomers) [Example 16, 2-{(1R,3S)-3-[5-Ethyl-2-(3-methoxyphenyl)oxazol-4-ylmethoxy]cyclohexylmethoxy}-2-methyl-3-phenylpropionic acid], the EC50 came to 400 nM on human PPARgamma and 17 nM at human PPARalpha.

In the case of `CCc1oc(-c2ccc(C)cc2)nc1CO[C@H]1CCC[C@@H](COC(C)(Cc2ccccc2)C(=O)O)C1` (mixture of isomers) [Example 17, 2-[(1R,3S)-3-(5-Ethyl-2-p-tolyloxazol-4-ylmethoxy)cyclohexylmethoxy]-2-methyl-3-phenylpropionic acid], the EC50 came to 510 nM on human PPARgamma and 0.16 nM on human PPARalpha.

In the case of `CCc1oc(-c2ccc(CC(C)C)cc2)nc1CO[C@H]1CCC[C@@H](COC(C)(Cc2ccccc2)C(=O)O)C1` (mixture of isomers) [Example 18, 2-{(1R,3S)-3-[5-Ethyl-2-(4-isobutylphenyl)oxazol-4-ylmethoxy]cyclohexylmethoxy}-2-methyl-3-phenylpropionic acid], the EC50 is 150 nM on human PPARgamma and 2.6 nM on human PPARalpha.

Consider `CCc1oc(-c2ccc3ccccc3c2)nc1CO[C@H]1CCC[C@@H](COC(C)(Cc2ccccc2)C(=O)O)C1` (mixture of isomers) [Example 19, 2-{(1R,3S)-3-[5-Ethyl-2-(naphth-2-yl)oxazol-4-ylmethoxy]cyclohexylmethoxy}-2-methyl-3-phenylpropionic acid], for which the EC50 was found to be 540 nM on human PPARgamma and 0.38 nM on human PPARalpha.

Take `Cc1ccc(-c2nc(CO[C@H]3CCC[C@@H](COC(C)(C)C(=O)O)C3)c(C)o2)cc1` [*]: on human PPARgamma, the EC50 was greater than 10000 nM.

The term EC50 denotes the concentration giving half of the maximal effect. Low readings indicate higher potency in that assay, high ones lower potency in that assay.
